Reference: PubChem BioAssay (NCI)
Values joined by “and” are separate entries in the source; they are usually repeats but may differ in a detail not shown here. Equal values may be shown once.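 Tested at 5 concentrations; 48 h exposure; 96-well plates; endpoints linearly interpolated, else capped at highest concentration. At the GI50, growth is halved. TGI: total growth inhibition.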

Test system: SN12K1 renal
Assay: NCI tumour cell line growth inhibition, 48 h

Row | Compound | GI50 [µM] | TGI
1 | N[C@@H](Cc1ccc(N(CCCl)CCCl)cc1)C(=O)O | 11.8 | 60.5 µM and 102 µM
2 | COc1nc(C(Cl)(Cl)Cl)c(Cl)c(OC)c1Cl |  | 62.4 µM
